US20230302104A1, “TREATMENT AND/OR PREVENTION OF A DISEASE OR A SYNDROME RELATED TO A VIRUS INFECTION” (priority 2020, published 2023)

Experiments:
[1] = tested on: SARS-CoV-2 spike pseudovirus entry in ACE2 overexpressing A549 human lung alveolar basal epithelium cells; type: cell-based
[2] = tested on: SARS-CoV-2 spike pseudotyped lentivirus entry in HeLa cells overexpressing TMPRSS2; type: cell-based; settings: 10 µM

Substance | effect on SARS-CoV-2 pseudoviral entry in combination with IFN-beta-1a [1] | inhibitory effect on SARS-CoV-2 pseudoviral cell-entry [2] | SARS-CoV-2 pseudovirus entry [1]
plasma derived AAT | additive inhibitory effect | no inhibitory effect | 
rhAAT |  |  | inhibits viral entry of several viruses
